Experimental data: ChEMBL document CHEMBL5154765, “Design, synthesis, and biological evaluation of novel spiro[pyrrolidine-2,3'-quinolin]-2'-one derivatives as potential chitin synthase inhibitors and antifungal agents” (Eur J Med Chem, 2022)
Values after ≈ are worked out from the molar mass of the structure shown. *1 amine or outer side, *2 acyl side, *3 side chain or, on linkers, in order; H or OH if unused. Where a SMILES comes first, the peptide text is derived from it. Bridges are numbered along the chain shown (N, C = ends). [ ]: non-standard residue; d: D form. The star is where a group is joined. hTyr(3S-OH,4S-OH,3'-OSO3H) = N[C@H](C(=O)O)[C@H](O)[C@@H](O)c1ccc(O)c(OS(=O)(=O)O)c1; Orn(4R-OH,5R-OH) = O=C([C@H](C[C@@H](O)[C@@H](O)N[*:3])N[*:1])[*:2]; Pro(3S-OH,4S-Me) = C[C@H]1CN[C@H](C(=O)O)[C@H]1O; X1 = CCCCCOc1ccc(-c2cc(-c3ccc(C(=O)*)cc3)no2)cc1; Gln(3R-OH) = NC(=O)C[C@@H](O)[C@H](N)C(=O)O; Hyp = O=C(O)[C@@H]1C[C@@H](O)CN1

Experiments:
Candida tropicalis = test: Inhibition of Candida tropicalis ATCC750 chitin synthase at 300 ug/ml using UDP-GlcNAc as substrate incubated for 1 hr by microplate reader analysis relative to control; details: dose 300.0 µg/ml
[1] = Inhibition of Candida tropicalis ATCC750 chitin synthase using UDP-GlcNAc as substrate incubated for 1 hr by microplate reader analysis
Candida albicans [2] = test: Antifungal activity against Candida albicans ATCC 76615 assessed as reduction in fungal growth incubated for 24 hrs by two fold broth dilution method; assay type: functional
Aspergillus flavus [3] = test: Antifungal activity against Aspergillus flavus ATCC 16870 assessed as reduction in fungal growth incubated for 24 hrs by two fold broth dilution method; assay type: functional
Aspergillus fumigatus [4] = test: Antifungal activity against Aspergillus fumigatus GIMCC 3.19 assessed as reduction in fungal growth incubated for 24 hrs by two fold broth dilution method; assay type: functional
Cryptococcus neoformans [5] = test: Antifungal activity against Cryptococcus neoformans ATCC 32719 assessed as reduction in fungal growth incubated for 24 hrs by two fold broth dilution method; assay type: functional
Candida albicans [6] = test: Antifungal activity against micafungin resistant Candida albicans ATCC 76615 assessed as reduction in fungal growth incubated for 24 hrs by two fold broth dilution method; assay type: functional
Candida albicans [7] = test: Antifungal activity against Candida albicans ATCC 76615 assessed as reduction in fungal growth in presence of sorbitol incubated for 24 hrs by two fold broth dilution method; assay type: functional
Aspergillus flavus [8] = test: Antifungal activity against Aspergillus flavus ATCC 16870 assessed as reduction in fungal growth in presence of sorbitol incubated for 24 hrs by two fold broth dilution method; assay type: functional
Aspergillus fumigatus [9] = test: Antifungal activity against Aspergillus fumigatus GIMCC 3.19 assessed as reduction in fungal growth in presence of sorbitol incubated for 24 hrs by two fold broth dilution method; assay type: functional
Cryptococcus neoformans [10] = test: Antifungal activity against Cryptococcus neoformans ATCC 32719 assessed as reduction in fungal growth in presence of sorbitol incubated for 24 hrs by two fold broth dilution method; assay type: functional
Candida albicans [11] = test: Antifungal activity against fluconazole resistant Candida albicans ATCC 76615 assessed as reduction in fungal growth incubated for 24 hrs by two fold broth dilution method; assay type: functional
Aspergillus flavus [12] = test: Antifungal activity against fluconazole resistant Aspergillus flavus ATCC 16870 assessed as reduction in fungal growth incubated for 24 hrs by two fold broth dilution method; assay type: functional
Aspergillus fumigatus [13] = test: Antifungal activity against fluconazole resistant Aspergillus fumigatus GIMCC 3.19 assessed as reduction in fungal growth incubated for 24 hrs by two fold broth dilution method; assay type: functional
Cryptococcus neoformans [14] = test: Antifungal activity against fluconazole resistant Cryptococcus neoformans ATCC 32719 assessed as reduction in fungal growth incubated for 24 hrs by two fold broth dilution method; assay type: functional

Compound: Cc1ccc(NC(=O)/C=C/C(=O)N2CCCC23Cc2ccccc2NC3=O)cc1 (centres undefined)
- inhibition (Candida tropicalis): 46.4%
- IC50 [1]: 1070 µM
- MIC (Candida albicans [2]): 32 µg/mL (≈ 82.2 µM)
- MIC (Aspergillus flavus [3]): 16 µg/mL (≈ 41.1 µM)
- MIC (Aspergillus fumigatus [4]): 64 µg/mL (≈ 164 µM)
- MIC (Cryptococcus neoformans [5]): 64 µg/mL (≈ 164 µM)

Compound: CCCCCOc1ccc(-c2cc(-c3ccc(C(=O)N[C@H]4C[C@@H](O)[C@@H](O)NC(=O)[C@@H]5[C@@H](O)[C@@H](C)CN5C(=O)[C@H]([C@H](O)CC(N)=O)NC(=O)[C@H]([C@H](O)[C@@H](O)c5ccc(O)c(OS(=O)(=O)O)c5)NC(=O)[C@@H]5C[C@@H](O)CN5C(=O)[C@H]([C@@H](C)O)NC4=O)cc3)no2)cc1 [MICAFUNGIN] (X1-[Orn(4R-OH,5R-OH)]T[Hyp][hTyr(3S-OH,4S-OH,3'-OSO3H)][Gln(3R-OH)][Pro(3S-OH,4S-Me)]; lactam 1-C)
- MIC (Candida albicans [6]): > 256 µg/mL

Compound: NC(=O)OC[C@H](O)[C@@H](O)[C@H](N)C(=O)N[C@H](C(=O)O)[C@H]1O[C@@H](n2cc(CO)c(=O)[nH]c2=O)[C@H](O)[C@@H]1O [POLYOXIN B]
- inhibition (Candida tropicalis): 86.1%
- IC50 [1]: 90 µM
- MIC (Candida albicans [2]): 8 µg/mL (≈ 15.8 µM)
- MIC (Aspergillus flavus [3]): 8 µg/mL (≈ 15.8 µM)
- MIC (Aspergillus fumigatus [4]): 8 µg/mL (≈ 15.8 µM)
- MIC (Cryptococcus neoformans [5]): 16 µg/mL (≈ 31.5 µM)
- MIC (Candida albicans [7]): 64 µg/mL
- MIC (Aspergillus flavus [8]): 64 µg/mL
- MIC (Aspergillus fumigatus [9]): 64 µg/mL
- MIC (Cryptococcus neoformans [10]): 128 µg/mL

Compound: O=C(/C=C/C(=O)N1CCCC12Cc1ccccc1NC2=O)Nc1ccc(Cl)cc1 (centres undefined)
- inhibition (Candida tropicalis): 71.8%
- IC50 [1]: 170 µM
- MIC (Candida albicans [2]): 4 µg/mL (≈ 9.76 µM)
- MIC (Aspergillus flavus [3]): 8 µg/mL (≈ 19.5 µM)
- MIC (Aspergillus fumigatus [4]): 4 µg/mL (≈ 9.76 µM)
- MIC (Cryptococcus neoformans [5]): 16 µg/mL (≈ 39 µM)
- MIC (Candida albicans [7]): 32 µg/mL
- MIC (Aspergillus flavus [8]): 64 µg/mL
- MIC (Aspergillus fumigatus [9]): 64 µg/mL
- MIC (Cryptococcus neoformans [10]): 128 µg/mL
- MIC (Candida albicans [11]): 128 µg/mL (≈ 312 µM)
- MIC (Aspergillus flavus [12]): 64 µg/mL (≈ 156 µM)
- MIC (Aspergillus fumigatus [13]): 64 µg/mL (≈ 156 µM)
- MIC (Cryptococcus neoformans [14]): 128 µg/mL (≈ 312 µM)
- MIC (Candida albicans [6]): 128 µg/mL (≈ 312 µM)

Compound: COc1cccc(NC(=O)/C=C/C(=O)N2CCCC23Cc2ccccc2NC3=O)c1 (centres undefined)
- inhibition (Candida tropicalis): 48.3%
- IC50 [1]: 770 µM
- MIC (Candida albicans [2]): 8 µg/mL (≈ 19.7 µM)
- MIC (Aspergillus flavus [3]): 16 µg/mL (≈ 39.5 µM)
- MIC (Aspergillus fumigatus [4]): 32 µg/mL (≈ 78.9 µM)
- MIC (Cryptococcus neoformans [5]): 32 µg/mL (≈ 78.9 µM)

Compound: COc1ccc(NC(=O)/C=C/C(=O)N2CCCC23Cc2ccccc2NC3=O)cc1 (centres undefined)
- inhibition (Candida tropicalis): 50.9%
- IC50 [1]: 590 µM
- MIC (Candida albicans [2]): 16 µg/mL (≈ 39.5 µM)
- MIC (Aspergillus flavus [3]): 32 µg/mL (≈ 78.9 µM)
- MIC (Aspergillus fumigatus [4]): 8 µg/mL (≈ 19.7 µM)
- MIC (Cryptococcus neoformans [5]): 32 µg/mL (≈ 78.9 µM)

Compound: O=C(/C=C/C(=O)N1CCCC12Cc1ccccc1NC2=O)Nc1ccc(Cl)cc1Cl (centres undefined)
- inhibition (Candida tropicalis): 73.7%
- IC50 [1]: 170 µM
- MIC (Candida albicans [2]): 4 µg/mL (≈ 9 µM)
- MIC (Aspergillus flavus [3]): 8 µg/mL (≈ 18 µM)
- MIC (Aspergillus fumigatus [4]): 8 µg/mL (≈ 18 µM)
- MIC (Cryptococcus neoformans [5]): 16 µg/mL (≈ 36 µM)
- MIC (Candida albicans [7]): 64 µg/mL
- MIC (Aspergillus flavus [8]): 128 µg/mL
- MIC (Aspergillus fumigatus [9]): 64 µg/mL
- MIC (Cryptococcus neoformans [10]): 128 µg/mL
- MIC (Candida albicans [11]): 64 µg/mL (≈ 144 µM)
- MIC (Aspergillus flavus [12]): 64 µg/mL (≈ 144 µM)
- MIC (Aspergillus fumigatus [13]): 64 µg/mL (≈ 144 µM)
- MIC (Cryptococcus neoformans [14]): 64 µg/mL (≈ 144 µM)
- MIC (Candida albicans [6]): 64 µg/mL (≈ 144 µM)

Compound: COc1cc(NC(=O)/C=C/C(=O)N2CCCC23Cc2ccccc2NC3=O)c(OC)cc1Cl (centres undefined)
- inhibition (Candida tropicalis): 67.9%
- IC50 [1]: 200 µM
- MIC (Candida albicans [2]): 8 µg/mL (≈ 17 µM)
- MIC (Aspergillus flavus [3]): 16 µg/mL (≈ 34 µM)
- MIC (Aspergillus fumigatus [4]): 32 µg/mL (≈ 68.1 µM)
- MIC (Cryptococcus neoformans [5]): 32 µg/mL (≈ 68.1 µM)

Compound: COc1ccccc1NC(=O)/C=C/C(=O)N1CCCC12Cc1ccccc1NC2=O (centres undefined)
- inhibition (Candida tropicalis): 65.2%
- IC50 [1]: 300 µM
- MIC (Candida albicans [2]): 8 µg/mL (≈ 19.7 µM)
- MIC (Aspergillus flavus [3]): 16 µg/mL (≈ 39.5 µM)
- MIC (Aspergillus fumigatus [4]): 8 µg/mL (≈ 19.7 µM)
- MIC (Cryptococcus neoformans [5]): 64 µg/mL (≈ 158 µM)

Compound: O=C(/C=C/C(=O)N1CCCC12Cc1ccccc1NC2=O)Nc1ccc(Br)cc1 (centres undefined)
- inhibition (Candida tropicalis): 56.4%
- IC50 [1]: 520 µM
- MIC (Candida albicans [2]): 8 µg/mL (≈ 17.6 µM)
- MIC (Aspergillus flavus [3]): 16 µg/mL (≈ 35.2 µM)
- MIC (Aspergillus fumigatus [4]): 16 µg/mL (≈ 35.2 µM)
- MIC (Cryptococcus neoformans [5]): 16 µg/mL (≈ 35.2 µM)

Compound: OC(Cn1cncn1)(Cn1cncn1)c1ccc(F)cc1F [FLUCONAZOLE]
- MIC (Candida albicans [2]): 4 µg/mL (≈ 13.1 µM)
- MIC (Aspergillus flavus [3]): 8 µg/mL (≈ 26.1 µM)
- MIC (Aspergillus fumigatus [4]): 4 µg/mL (≈ 13.1 µM)
- MIC (Cryptococcus neoformans [5]): 8 µg/mL (≈ 26.1 µM)
- MIC (Candida albicans [11]): > 256 µg/mL
- MIC (Aspergillus flavus [12]): > 256 µg/mL
- MIC (Aspergillus fumigatus [13]): > 256 µg/mL
- MIC (Cryptococcus neoformans [14]): > 256 µg/mL

Compound: Cc1cccc(NC(=O)/C=C/C(=O)N2CCCC23Cc2ccccc2NC3=O)c1 (centres undefined)
- inhibition (Candida tropicalis): 44.1%
- IC50 [1]: 1210 µM
- MIC (Candida albicans [2]): 16 µg/mL (≈ 41.1 µM)
- MIC (Aspergillus flavus [3]): 32 µg/mL (≈ 82.2 µM)
- MIC (Aspergillus fumigatus [4]): 64 µg/mL (≈ 164 µM)
- MIC (Cryptococcus neoformans [5]): 128 µg/mL (≈ 329 µM)

Compound: Cc1ccccc1NC(=O)/C=C/C(=O)N1CCCC12Cc1ccccc1NC2=O (centres undefined)
- inhibition (Candida tropicalis): 47.2%
- IC50 [1]: 970 µM
- MIC (Candida albicans [2]): 8 µg/mL (≈ 20.5 µM)
- MIC (Aspergillus flavus [3]): 16 µg/mL (≈ 41.1 µM)
- MIC (Aspergillus fumigatus [4]): 8 µg/mL (≈ 20.5 µM)
- MIC (Cryptococcus neoformans [5]): 64 µg/mL (≈ 164 µM)

Compound: O=C(/C=C/C(=O)N1CCCC12Cc1ccccc1NC2=O)Nc1ccccc1Cl (centres undefined)
- inhibition (Candida tropicalis): 76.1%
- IC50 [1]: 120 µM
- MIC (Candida albicans [2]): 4 µg/mL (≈ 9.76 µM)
- MIC (Aspergillus flavus [3]): 8 µg/mL (≈ 19.5 µM)
- MIC (Aspergillus fumigatus [4]): 4 µg/mL (≈ 9.76 µM)
- MIC (Cryptococcus neoformans [5]): 8 µg/mL (≈ 19.5 µM)
- MIC (Candida albicans [7]): 32 µg/mL
- MIC (Aspergillus flavus [8]): 128 µg/mL
- MIC (Aspergillus fumigatus [9]): 64 µg/mL
- MIC (Cryptococcus neoformans [10]): 64 µg/mL
- MIC (Candida albicans [11]): 32 µg/mL (≈ 78.1 µM)
- MIC (Aspergillus flavus [12]): 16 µg/mL (≈ 39 µM)
- MIC (Aspergillus fumigatus [13]): 32 µg/mL (≈ 78.1 µM)
- MIC (Cryptococcus neoformans [14]): 32 µg/mL (≈ 78.1 µM)
- MIC (Candida albicans [6]): 32 µg/mL (≈ 78.1 µM)

Compound: Cc1cc(C)cc(NC(=O)/C=C/C(=O)N2CCCC23Cc2ccccc2NC3=O)c1 (centres undefined)
- inhibition (Candida tropicalis): 45.7%
- IC50 [1]: 990 µM
- MIC (Candida albicans [2]): 16 µg/mL (≈ 39.7 µM)
- MIC (Aspergillus flavus [3]): 32 µg/mL (≈ 79.3 µM)
- MIC (Aspergillus fumigatus [4]): 32 µg/mL (≈ 79.3 µM)
- MIC (Cryptococcus neoformans [5]): 32 µg/mL (≈ 79.3 µM)

Compound: O=C(/C=C/C(=O)N1CCCC12Cc1ccccc1NC2=O)Nc1cccc2ccccc12 (centres undefined)
- inhibition (Candida tropicalis): 53.6%
- IC50 [1]: 570 µM
- MIC (Candida albicans [2]): 8 µg/mL (≈ 18.8 µM)
- MIC (Aspergillus flavus [3]): 16 µg/mL (≈ 37.6 µM)
- MIC (Aspergillus fumigatus [4]): 16 µg/mL (≈ 37.6 µM)
- MIC (Cryptococcus neoformans [5]): 64 µg/mL (≈ 150 µM)
